Measured values reported in patent US20230322779A1 (priority 2020, published 2023).
Where two headings read alike, the source gives them in different places.

Columns and labels:
in vitro = settings: human, A549-hACE2 cells, uninfected
[1] = system: SARS-CoV-2 (βCoV/KOR/KCDC03/2020); test: Dose-response curve analysis by immunofluorescence, anti-SARS-CoV-2 activity in Calu-3 cells; type: cell-based
[2] = system: SARS-CoV-2 nLUC reporter virus; test: microbe, parasite or virus in culture; type: cell-based; settings: for antiviral activity against SARS-CoV-2 reporter virus in A549-hACE2 cells: 10 to 0.002 μM
Calu-3 cells = test: Cell viability by nucleus counting in the Calu-3 dose-response assay; settings: 0.0025 to 50 μM
SARS-CoV-2 B.1.1.7 = test: SARS-CoV-2 in primary human bronchial cells at air liquid interface (HAEC-ALI), vRNA of apical wash by RT-qPCR; type: cell-based
[3] = Severe acute respiratory syndrome coronavirus 2, 48 h

| Compound | CC50 at 48 h (in vitro) [µM] | antiviral activity against SARS-CoV-2 in Calu-3 cells [1] | antiviral activity against SARS-CoV-2 reporter virus in A549-hACE2 cells [2] | IC50 [2, 3] [µM] | toxicity in Calu-3 cells (Calu-3 cells) | inhibition of vRNA in apical wash fluid (SARS-CoV-2 B.1.1.7; 3 μM, all timepoints (day 2-11), HAEC-ALI) | inhibition of vRNA in apical wash fluid (SARS-CoV-2 B.1.1.7; 0.37 μM and lower, HAEC-ALI) | inhibition of vRNA in apical wash fluid (SARS-CoV-2 B.1.1.7; 1.1 μM, day 9, HAEC-ALI) | inhibition of vRNA in apical wash fluid (SARS-CoV-2 B.1.1.7; 3 μM, day 4-11, HAEC-ALI) | inhibition of vRNA in apical wash fluid (SARS-CoV-2 B.1.1.7; 10 μM, all timepoints (day 2-11), HAEC-ALI) | antiviral against SARS-CoV-2 (overall, HAEC-ALI) (SARS-CoV-2 B.1.1.7; primary human bronchial cells, air liquid interface) | IC50 [2] [µM] |
| --- | --- | --- | --- | --- | --- | --- | --- | --- | --- | --- | --- | --- |
| FC(F)(F)c1nc(C(F)(F)F)c2ccc3nc(-c4nnco4)cn3c2n1 [Example 9, 2-(2,4-bis(trifluoromethyl)imidazo[1′2′:1,6]pyrido[2,3-d]pyrimidin-8-yl)-1,3,4-oxadiazole] | > 10 | activity in the μM range | has antiviral activity against SARS-CoV-2 reporter virus when used in the μM range | > 1 | Neither compound showed toxicity |  |  |  |  |  |  |  |
| N#C[C@@]1(c2ccc3c(N)ncnn23)O[C@H](CO)[C@@H](O)[C@H]1O [GS-441524, reference compound] |  |  |  |  |  | statistically significant inhibition |  |  |  |  |  |  |
| FC(F)(F)c1cc(C(F)(F)F)c2ccc3nc(-c4nnco4)cn3c2n1 [Example 1, 2-[2,4-bis(trifluoromethyl)imidazo[1,2-a]1,8-naphthyridin-8-yl]-1,3,4-oxadiazole] | > 10 | activity in the μM range | has antiviral activity against SARS-CoV-2 reporter virus when used in the μM range | > 1 | Neither compound showed toxicity |  | No inhibition was observed | statistically significant inhibition | statistically significant inhibition | statistically significant inhibition | antiviral against SARS-CoV-2 when used in the μM range | 1.71 |
